Measurements taken from article PMC9386913 (Arthritis Research & Therapy, 2022).
Where two headings read alike, the source gives them in different places.

Experiments:
[1] = Plasma pharmacokinetics in MAD study (LC-MS/MS); format: in vivo, human (healthy volunteers); settings: for Cmax: human, plasma
Description: PK parameters were calculated via non-compartmental methodology using Phoenix version 7 or higher (Princeton, NJ).

[2] = tested on: LPS-stimulated whole blood; experiment: Ex vivo LPS-stimulated whole blood cytokine/chemokine production (TruCulture) in dosed subjects; parameters: species or system human (healthy volunteers)
Description: Briefly, blood (1 mL) was drawn into the LPS-containing TruCulture tubes. The tubes were placed in a 37 °C block thermostat for 24 ± 1 h and then frozen at −70 °C. Media mixed with plasma were analyzed for TNF and other cytokine/chemokine levels. TNF inhibition in ex vivo LPS-stimulated blood was measured as a percentage change in TNF levels from baseline. Percentage change in other cytokines and chemokines in the ex vivo stimulation assay was also measured with respect to their baseline levels.

[3] = tested on: SEB/IL-2-stimulated PBMCs; experiment: Cytokine production in SEB/IL-2-stimulated PBMCs; format: cell-based, human; settings: PBMCs from healthy donors and AS patients, SEB + IL-2 72 h
LPS-stimulated monocytes = experiment: Cytokine secretion in LPS-stimulated monocytes; format: cell-based, human; settings: LPS 100 ng/mL 4 or 24 h
Description: (§1) Culture supernatants were centrifuged, and the supernatants were collected and analyzed for selected cytokines and chemokines using Milliplex Magpix assays (catalog HCYTO – 60K; Millipore Sigma, Burlington, MA). Levels of proinflammatory cytokines TNF and MCP-1 for the monocytes and macrophages were quantified using specific ELISA kits (R&D, NJ, USA) according to the manufacturer’s recommendations. Data were processed using Milliplex Analyst, and significance was calculated using the one-way analysis of variance (ANOVA) with Dunnett’s post-test algorithms in GraphPad Prism version 5.01. PBMCs were isolated from buffy coat using the Ficoll gradient method. Monocytes were isolated using the […] Technologies Inc. kit (catalog number 19058; Vancouver, BC, Canada). […] Macrophages were then plated and allowed to acclimate for 24 h. […] Medium from the cultured macrophages was used for cytokine analysis using Magpix magnetic beads (Catalog HCYTO – 60K; Millipore Sigma, Burlington, MA). Cell pellets from the macrophage cultures were collected for western blot analysis using capillary electrophoresis to analyze the effect on TTP, with glyceraldehyde 3-phosphate dehydrogenase (GAPDH) used as the house-keeping protein in the capillary electrophoresis. Antibodies against total TTP (CST#7162 Rabbit Monoclonal antibody) and GAPDH (CST#5174 Rabbit Monoclonal antibody) were used to detect the respective proteins.

[4] = tested on: LPS-stimulated macrophages; experiment: Cytokine secretion in LPS-stimulated monocyte-derived macrophages; format: cell-based, human; settings: LPS 100 ng/mL 4 or 24 h
Description: as §1

LPS-stimulated PBMCs = settings: cited from earlier work
[5] = Peripheral blood leukocyte and subtype counts in MAD study; settings: 150 mg, pre-dose baseline through 14-day dosing (n = 5)
THP-1 cells = experiment: In vitro tachyphylaxis model: daily treatment of THP-1 cells, LPS-stimulated TNF; settings: up to 14 days, 0.1 or 1 μM CC-99677 or 1 μM p38 inhibitors
[6] = 150-mg dose level cohort, day 5
[7] = continuous dosing at 120 and 150 mg

CCOCc1cnc(Cl)nc1Oc1ccc2c(ccc3sc4c(c32)NC[C@@H](C)NC4=O)n1 [CC-99677]
Dose proportionality of concentration and exposure ([1]; 10 to 150 mg once daily over 14 days): linear, dose-proportional increase in concentration and exposure
Day-to-day plasma accumulation ([1]; all 5 dose levels, minimal detectable plasma CC-99677 > 24 h after dosing): limited to no day-to-day plasma accumulation
Cmax ([1]; oral, 150-mg dose level, read-out: Geometric mean Cmax expressed as molar concentration): ~800 nM
Cmax ([1]; day 1, 10 mg oral, read-out: Geometric mean peak concentration (Cmax, CV%)): 20.5 ng/mL
Cmax ([1]; day 1, 30 mg oral, read-out: Geometric mean peak concentration (Cmax, CV%)): 63.4 ng/mL
Cmax ([1]; day 1, 60 mg oral, read-out: Geometric mean peak concentration (Cmax, CV%)): 150 ng/mL
Cmax ([1]; day 1, 120 mg oral, read-out: Geometric mean peak concentration (Cmax, CV%)): 269 ng/mL
Cmax ([1]; day 1, 150 mg oral, read-out: Geometric mean peak concentration (Cmax, CV%)): 257 ng/mL
Onset of reduction of TNF production ([2]; 60-, 120-, and 150-mg dose cohorts): reduced as early as day 2
Maximal TNF inhibition (percentage change from baseline) ([2]; 150-mg dose cohort): 70%
TNF inhibition maintained during the dosing period ([2]; 150-mg dose cohort, 14 days): approximately 70%
Maximal inhibition of IL-6 [2, 6]: 50%
Maximal inhibition of MIP-1α [2, 6]: 50%
TNF inhibition, ex vivo LPS-stimulated blood ([2]; all doses > 10 mg): inhibited TNF at all doses > 10 mg, and this inhibition was sustained until day 14
MIP-1α production [2, 7]: inhibited with continuous dosing
MIP-1β production [2, 7]: inhibited with continuous dosing
IL-6 expression [3]: inhibited
IL-17A expression [3]: inhibited
MCP-1 expression [3]: inhibited
TNF expression [3]: inhibited
IL-1β secretion (LPS-stimulated monocytes): concentration-dependent inhibition
IL-6 secretion (LPS-stimulated monocytes): concentration-dependent inhibition
TNF secretion (LPS-stimulated monocytes): strong concentration-dependent inhibition
TNF secretion [4]: strong concentration-dependent inhibition
IL-1β secretion ([4]; more potent than in monocytes): concentration-dependent inhibition
IL-6 secretion ([4]; more potent than in monocytes): concentration-dependent inhibition
Inflammatory cytokine production including TNF, IL-6, and GM-CSF (LPS-stimulated PBMCs; LPS-stimulated healthy donor PBMCs): inhibits inflammatory cytokine production
IL-1β inhibition in PBMCs after LPS stimulation (LPS-stimulated PBMCs; PBMCs): no inhibition of IL-1β was observed
Mean WBC, lymphocyte, monocyte, and neutrophil counts [5]: comparable to placebo
LPS-stimulated TNF production under continued daily treatment (THP-1 cells): suppressed TNF production throughout the treatment period
